Experiment [1] has as its target T1, wild-type human cardiac sodium channel, hNav1.5 (Homo sapiens, UniProt Q14524). Nature of the experiment: Late INa screening assay (QPatch whole cell patch clamp, HEK293). The experiment is classed as cell-based. The note with it: HEK293, percent block of late INa; compound at 1 μM; 10 μM Tefluthrin; read-out: Late INa 1 μM. The method, boiled down: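 HEK293 stably expressing hNav1.5 without beta subunits, recorded at 23-25° C. Late current was induced by 10 μM tefluthrin. Cells were depolarized from −120 mV to −20 mV for 250 ms at 0.1 Hz. Compounds were tested at 1 μM in extracellular solution, with baseline taken in 0Na-ECF; output is percent block of late INa.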
On the technique in general: Patch clamp records ionic current or voltage across a cell membrane.

Experiment [2] concerns the target T1, wild-type human cardiac sodium channel, hNav1.5. In words: Peak INa screening assay (tonic and use-dependent block). The experiment is classed as cell-based. The note with it: compound at 1 μM. The protocol: The late sodium current (Late INa) and peak sodium current (Peak INa) assays are performed on an automated electrophysiology platform, QPatch 16× (Sophion Bioscience, Copenhagen, Denmark), which uses the whole cell patch clamp technique to measure currents through the cell membrane of up to 16 cells at a time. The assay uses an HEK293 (human embryonic kidney) cell line heterologously expressing the wild-type human cardiac sodium channel, hNav1.5, purchased from Millipore (Billerica, Mass.). No beta subunits were coexpressed with the Na channel alpha subunit. Cells are maintained with standard tissue culture procedures and stable channel expression is maintained with 400 μg/mL Geneticin in the culture medium. Cells isolated for use on QPatch are incubated for 5 minutes in Detachin 1×(Genlantis, San Diego, USA) at 37° C. to ensure that 80-90% of the cells are single and not part of a cell cluster. Experiments are carried out at 23-25° C.
For both the Late INa and Peak INa assays, series resistance compensation is set to 100% and series resistance and whole-cell compensation are performed automatically. Currents are digitized at 25 kHz and low-pass filtered at 12 kHz and 10 kHz for the late and peak INa assays, respectively. Currents through open sodium channels are automatically recorded and stored in the Sophion Bioscience Oracle database (Sophion Bioscience, Copenhagen, Denmark). Analysis is performed using QPatch Assay and database software and data are compiled in Excel.
Compound stocks are routinely made by the Gilead Sample Bank in plastic vials to 10 mM in dimethyl sulfoxide (DMSO). In some cases, when compounds are not soluble in DMSO, they are made in 100% ethanol. Stocks are sonicated as necessary. The extracellular solution for screening Late INa is composed of: 140 mM NaCl, 4 mM KCl, 1.8 mM CaCl2, 0.75 mM MgCl2 and 5 mM HEPES with pH adjusted to 7.4 using NaOH. The intracellular solution used to perfuse the inside of the cells for both the Late INa and Peak INa assays contains: 120 mM CsF, 20 mM CsCl, 5 mM EGTA, 5 mM HEPES and pH adjusted to 7.4 with CsOH. Compounds are diluted in extracellular solution to 1 μM in glass vials and then transferred to glass well plates before robotic addition to the cells. The 0 mM Na extracellular solution (0Na-ECF) used at the end of each experiment for the Late INa and Peak INa assays to measure baseline current contains: 140 mM N-methyl-D-glucamine; 4 mM KCl; 1.8 mM CaCl2; 0.75 mM MgCl2; 5 mM HEPES and pH was adjusted to 7.4 with HCl.
Compounds were also evaluated for their effect in several other assays, including their effect on Peak INa. […] Since the peak INa in the cells used herein can be very large, introducing artifacts in the recording, the concentration of Na^+ in the bath can be reduced to 20 mM and a nonpermeant cation added to compensate for the Na^+ that was removed to maintain the osmolarity and ionic strength of the solution (see solution details below).
A low stimulation frequency of 0.1 Hz was used to determine the effect of the test compound when the channel spent most of the time in the resting (closed) state and provides information about Tonic Block (TB). A higher stimulation frequency (3 Hz) was used to measure block of the channel when it spent more time in the activated and inactivated states and provided a measure of Use-Dependent Block (UDB). Use-dependent block refers to the accumulation of block with increased frequency of channel activation.

Setting [3] is: tonic block of peak INa, 0.1 Hz, read-out: Peak TB 1 μM.
The mark [4] stands for this setting: use-dependent block of peak INa, 3 Hz, read-out: Peak UDB 1 μM.

The record followed here is patent US9676760B2, “Fused heterocyclic compounds as ion channel modulators” (Gilead Sciences, Inc., priority 2011, dated 2017).

T1 sequence (Q14524 whole entry): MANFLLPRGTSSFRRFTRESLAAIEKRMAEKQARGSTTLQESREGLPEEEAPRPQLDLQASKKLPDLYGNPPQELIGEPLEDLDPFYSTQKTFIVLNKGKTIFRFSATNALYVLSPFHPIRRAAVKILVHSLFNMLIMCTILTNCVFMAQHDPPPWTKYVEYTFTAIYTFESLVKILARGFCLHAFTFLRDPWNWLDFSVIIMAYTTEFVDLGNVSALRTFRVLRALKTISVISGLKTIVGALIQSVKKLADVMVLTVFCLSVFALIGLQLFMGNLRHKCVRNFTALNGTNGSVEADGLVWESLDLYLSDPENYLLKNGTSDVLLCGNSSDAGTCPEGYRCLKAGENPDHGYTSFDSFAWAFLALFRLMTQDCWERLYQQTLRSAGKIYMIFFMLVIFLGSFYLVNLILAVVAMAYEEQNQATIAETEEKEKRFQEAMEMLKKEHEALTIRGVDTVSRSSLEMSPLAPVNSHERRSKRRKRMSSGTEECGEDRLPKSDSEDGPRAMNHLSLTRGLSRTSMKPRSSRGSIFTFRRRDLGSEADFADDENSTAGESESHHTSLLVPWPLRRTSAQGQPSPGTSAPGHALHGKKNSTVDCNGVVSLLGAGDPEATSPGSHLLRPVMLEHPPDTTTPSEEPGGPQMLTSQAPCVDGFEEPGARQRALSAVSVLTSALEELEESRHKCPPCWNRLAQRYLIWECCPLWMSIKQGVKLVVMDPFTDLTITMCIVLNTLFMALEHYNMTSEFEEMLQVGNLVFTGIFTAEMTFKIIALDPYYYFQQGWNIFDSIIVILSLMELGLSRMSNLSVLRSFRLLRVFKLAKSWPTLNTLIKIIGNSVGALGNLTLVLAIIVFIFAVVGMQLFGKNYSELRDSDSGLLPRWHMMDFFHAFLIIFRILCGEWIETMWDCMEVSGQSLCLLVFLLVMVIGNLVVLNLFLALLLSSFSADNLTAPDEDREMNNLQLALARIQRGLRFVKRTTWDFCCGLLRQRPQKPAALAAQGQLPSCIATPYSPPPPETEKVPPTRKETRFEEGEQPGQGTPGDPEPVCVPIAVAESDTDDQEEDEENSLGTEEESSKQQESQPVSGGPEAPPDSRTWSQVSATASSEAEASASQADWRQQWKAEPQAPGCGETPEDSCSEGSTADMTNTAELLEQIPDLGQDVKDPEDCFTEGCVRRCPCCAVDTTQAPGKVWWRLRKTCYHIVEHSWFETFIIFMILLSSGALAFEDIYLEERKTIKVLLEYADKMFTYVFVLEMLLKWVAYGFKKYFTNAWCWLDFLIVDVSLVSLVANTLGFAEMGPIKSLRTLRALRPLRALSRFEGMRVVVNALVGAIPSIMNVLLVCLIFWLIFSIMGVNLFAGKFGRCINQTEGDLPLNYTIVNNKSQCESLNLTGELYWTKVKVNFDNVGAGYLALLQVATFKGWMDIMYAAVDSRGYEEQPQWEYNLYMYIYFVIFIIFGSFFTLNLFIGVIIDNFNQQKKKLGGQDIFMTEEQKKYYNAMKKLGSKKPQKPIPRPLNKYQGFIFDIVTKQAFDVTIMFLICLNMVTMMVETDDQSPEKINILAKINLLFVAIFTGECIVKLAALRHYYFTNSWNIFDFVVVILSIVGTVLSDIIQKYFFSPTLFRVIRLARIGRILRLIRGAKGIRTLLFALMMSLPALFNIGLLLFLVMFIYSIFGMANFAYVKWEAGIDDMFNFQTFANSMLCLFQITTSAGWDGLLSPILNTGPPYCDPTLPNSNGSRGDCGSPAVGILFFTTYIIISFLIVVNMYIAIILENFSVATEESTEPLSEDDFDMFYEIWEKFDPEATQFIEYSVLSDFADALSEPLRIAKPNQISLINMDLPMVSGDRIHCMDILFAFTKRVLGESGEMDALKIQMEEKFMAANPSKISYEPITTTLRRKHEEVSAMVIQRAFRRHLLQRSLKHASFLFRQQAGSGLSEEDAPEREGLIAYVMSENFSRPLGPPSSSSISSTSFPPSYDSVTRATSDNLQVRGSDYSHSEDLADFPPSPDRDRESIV

Turning to `Cn1cc(C(=O)N2CCOc3ccc(-c4ccc(OC(F)(F)F)cc4)cc3C2)cn1` [III-12, (1-methyl-1H-pyrazol-4-yl)(7-(4-(trifluoromethoxy)phenyl)-2,3-dihydrobenzo[f][1,4]oxazepin-4(5H)-yl)methanone], the inhibition at 1 µM in experiment [1] was 39%; in experiment [2] (setting [3]), 10%; in experiment [2] (setting [4]) it was 17%.
Consider `Cc1cnn(CN2CCOc3ccc(-c4ccc(OC(F)(F)F)cc4)cc3C2=O)c1` [II-155, 4-((4-methyl-1H-pyrazol-1-yl)methyl)-7-(4-(trifluoromethoxy)phenyl)-3,4-dihydrobenzo[f][1,4]oxazepin-5(2H)-one], for which the inhibition at 1 µM in experiment [1] stood at 38%; in experiment [2] (setting [3]) it was 13%; in experiment [2] (setting [4]), 11%.
With `O=C1c2cc(-c3ccc(OC(F)(F)F)cc3)ccc2OCCN1Cc1ccccc1F` [II-57, 4-(2-fluorobenzyl)-7-(4-(trifluoromethoxy)phenyl)-3,4-dihydrobenzo[f][1,4]oxazepin-5(2H)-one], the figures for the inhibition at 1 µM in experiment [1], in experiment [2] (setting [3]) and in experiment [2] (setting [4]) were 55%, 50% and 41%, respectively.
`O=C1c2cc(-c3ccc(OC(F)(F)F)cc3)ccc2OCCN1Cc1cn2ccccc2n1` [II-189, 4-(imidazo[1,2-a]pyridin-2-ylmethyl)-7-(4-(trifluoromethoxy)phenyl)-3,4-dihydrobenzo[f][1,4]oxazepin-5(2H)-one]: the inhibition at 1 µM in experiment [1] turned out to be 53%; in experiment [2] (setting [3]), 23%; in experiment [2] (setting [4]) it was 28%.
On to `O=C1c2cc(-c3ccc(C(F)(F)F)cc3)ccc2OCCN1Cc1ncccc1F` [II-176, 4-((3-fluoropyridin-2-yl)methyl)-7-(4-(trifluoromethyl)phenyl)-3,4-dihydrobenzo[f][1,4]oxazepin-5(2H)-one], for which the inhibition at 1 µM in experiment [1] amounted to 68%; in experiment [2] (setting [3]), 45%; in experiment [2] (setting [4]), 44%.
`O=C1c2cc(-c3ccc(C4CC4)s3)ccc2OCCN1Cc1ccccn1` [VI-32, 7-(5-cyclopropylthiophen-2-yl)-4-(pyridin-2-ylmethyl)-3,4-dihydrobenzo[f][1,4]oxazepin-5(2H)-one]: the inhibition at 1 µM in experiment [1] came to 66%; in experiment [2] (setting [3]), 28%; in experiment [2] (setting [4]), 26%.
Consider `O=C1c2cc(-c3ccc(OC(F)(F)F)cc3)ccc2OCCN1Cc1ccn(C(F)F)n1` [II-147, 4-((1-(difluoromethyl)-1H-pyrazol-3-yl)methyl)-7-(4-(trifluoromethoxy)phenyl)-3,4-dihydrobenzo[f][1,4]oxazepin-5(2H)-one], for which the inhibition at 1 µM worked out at 54% in experiment [1], 13% in experiment [2] (setting [3]) and 6% in experiment [2] (setting [4]).
With `O=C1c2cc(-c3ccc(C(F)F)cc3)ccc2OCCN1Cc1ccccn1` [II-157, 7-(4-(difluoromethyl)phenyl)-4-(pyridin-2-ylmethyl)-3,4-dihydrobenzo[f][1,4]oxazepin-5(2H)-one], the figures for the inhibition at 1 µM in experiment [1], in experiment [2] (setting [3]) and in experiment [2] (setting [4]) were 43%, 13% and 16%, respectively.
On to `O=C1c2cc(-c3ccc(OC(F)(F)F)cc3)ccc2OCCN1Cc1nccn1Cc1ccccc1` [II-187], for which the inhibition at 1 µM in experiment [1] was found to be 62%; in experiment [2] (setting [3]), 9%; in experiment [2] (setting [4]), 21%.
With `O=C1c2nc(-c3ccc(OC(F)(F)F)cc3)ccc2OCCN1Cc1ccccc1` [XII-2, 4-benzyl-7-(4-(trifluoromethoxy)phenyl)-3,4-dihydropyrido[2,3-f][1,4]oxazepin-5(2H)-one], the inhibition at 1 µM in experiment [1] was 57%; in experiment [2] (setting [3]), 45%; in experiment [2] (setting [4]) it was 64%.
As for `O=C1c2cc(-c3ccc(OC(F)(F)F)cc3)ccc2OCCN1Cc1cnccn1` [II-31, 4-(pyrazin-2-ylmethyl)-7-(4-(trifluoromethoxy)phenyl)-3,4-dihydrobenzo[f][1,4]oxazepin-5(2H)-one], the inhibition at 1 µM in experiment [1] was determined as 51%; in experiment [2] (setting [3]), 9%; in experiment [2] (setting [4]), 8%.
